The text below walks through data of the supplement of paper PMC10307832.

Compound in assay [1]: CC1CC(=O)N(C2=CN=C(N=C2N1C3CCCC3)NC4=C(C=C(C=C4)C(=O)NC5CCN(CC5)C)OC)C [NPK76-II-72-1] + CC1(C)CCC(c2ccc(Cl)cc2)=C(CN2CCN(c3ccc(C(=O)NS(=O)(=O)c4ccc(N[C@H](CCN5CCOCC5)CSc5ccccc5)c(S(=O)(=O)C(F)(F)F)c4)cc3)CC2)C1 [Navitoclax] (partner 0.5 µM)
Briefly: relative viability (nuclei count vs DMSO), 5 days (fraction); higher = more cells survive. Summed up: (§1)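 Relative viability equals treated-well nuclei counts divided by vehicle-well nuclei counts. Counts came from 4× images of lung cancer cell lines grown in 1536-well plates for 5 days after pin-tool dosing on the day after seeding. Dosing used one drug alone or a fixed anchor-drug dose plus five library-drug doses (not always all listed) in √10 steps, and values are medians of duplicate plates.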

Compound in assay [2]: CC[C@@H]1C(=O)N(C)c2cnc(Nc3ccc(C(=O)NC4CCN(C)CC4)cc3OC)nc2N1C1CCCC1 [BI-2536] + COc1cc2c(Oc3ccc(NC(=O)C4(C(=O)Nc5ccc(F)cc5)CC4)cc3F)ccnc2cc1OCCCN1CCOCC1 [Foretinib] (partner 0.25 µM)
The description is as above. The method, boiled down:
as §1

With NCI-H2405, the relative viability in assay [1] (first compound 0.01 µM) came to 0.834; in assay [1] (first compound 0.03162 µM) it was 0.965; in assay [1] (first compound 0.1 µM), 0.806; in assay [1] (first compound 0.3162 µM), 0.844; in assay [1] (first compound 1 µM), 1.17; in assay [2] (first compound 0.01 µM), 1.05. Also, the relative viability is 0.731 in assay [2] (first compound 0.03162 µM), 0.386 in assay [2] (first compound 0.1 µM), 0.296 in assay [2] (first compound 0.3162 µM) and 0.354 in assay [2] (first compound 1 µM).

Turning to NCI-H322M, the relative viability in assay [1] (first compound 0.01 µM) is 1.19; in assay [1] (first compound 0.03162 µM) it was 1.2; in assay [1] (first compound 0.1 µM), 1.18; in assay [1] (first compound 0.3162 µM), 1.24; in assay [1] (first compound 1 µM), 1.32; in assay [2] (first compound 0.01 µM) it was 0.98. For the same cell line, the relative viability in assay [2] (first compound 0.03162 µM) was found to be 0.842; in assay [2] (first compound 0.1 µM), 0.834; in assay [2] (first compound 0.3162 µM), 0.389; in assay [2] (first compound 1 µM) it was 0.319.

For NCI-H2170, the relative viability was determined as 0.615 in assay [1] (first compound 0.01 µM); 0.558 in assay [1] (first compound 0.03162 µM); 0.565 in assay [1] (first compound 0.1 µM); 0.643 in assay [1] (first compound 1 µM); 1.03 in assay [2] (first compound 0.01 µM); 1.02 in assay [2] (first compound 0.03162 µM). Moreover, the relative viability in assay [2] (first compound 0.1 µM) turned out to be 0.799; in assay [2] (first compound 0.3162 µM) it was 0.219; in assay [2] (first compound 1 µM), 0.208.

With NCI-H1395, the relative viability is 0.994 in assay [1] (first compound 0.01 µM); 1.14 in assay [1] (first compound 0.03162 µM); 1.24 in assay [1] (first compound 0.1 µM); 1.46 in assay [1] (first compound 0.3162 µM); 1.25 in assay [1] (first compound 1 µM); 0.911 in assay [2] (first compound 0.01 µM). In addition, the relative viability in assay [2] (first compound 0.03162 µM) is 1.1; in assay [2] (first compound 0.1 µM) it was 0.691; in assay [2] (first compound 0.3162 µM) it was 0.339; in assay [2] (first compound 1 µM), 0.327.

Regarding IA-LM, the relative viability was 0.752 in assay [1] (first compound 0.01 µM); 1.17 in assay [1] (first compound 0.03162 µM); 0.67 in assay [1] (first compound 0.1 µM); 0.733 in assay [1] (first compound 0.3162 µM); 1 in assay [1] (first compound 1 µM); 1.24 in assay [2] (first compound 0.01 µM). Besides, the relative viability in assay [2] (first compound 0.03162 µM) amounted to 1.14; in assay [2] (first compound 0.1 µM) it was 0.518; in assay [2] (first compound 0.3162 µM), 0.0587; in assay [2] (first compound 1 µM) it was 0.0439.

On to NCI-H838, for which the relative viability in assay [1] (first compound 0.01 µM) is 1.11; in assay [1] (first compound 0.03162 µM), 1.19; in assay [1] (first compound 0.1 µM) it was 1.19; in assay [1] (first compound 0.3162 µM) it was 1.09; in assay [1] (first compound 1 µM), 1.11; in assay [2] (first compound 0.01 µM) it was 0.953. Moreover, the relative viability in assay [2] (first compound 0.03162 µM) worked out at 1.06; in assay [2] (first compound 0.1 µM), 0.636; in assay [2] (first compound 0.3162 µM), 0.145; in assay [2] (first compound 1 µM), 0.134.

In the case of CAL-12T, the relative viability in assay [1] (first compound 0.01 µM) turned out to be 1.15; in assay [1] (first compound 0.03162 µM) it was 1.32; in assay [1] (first compound 0.1 µM), 1.22; in assay [1] (first compound 0.3162 µM), 1.02; in assay [1] (first compound 1 µM), 1.18; in assay [2] (first compound 0.01 µM), 1.08. Also, the relative viability in assay [2] (first compound 0.03162 µM) is 0.951; in assay [2] (first compound 0.1 µM), 0.503; in assay [2] (first compound 0.3162 µM) it was 0.173; in assay [2] (first compound 1 µM), 0.187.

EBC-1: the relative viability in assay [1] (first compound 0.01 µM) amounted to 0.35; in assay [1] (first compound 0.03162 µM), 0.36; in assay [1] (first compound 0.1 µM) it was 0.376; in assay [1] (first compound 0.3162 µM), 0.417; in assay [1] (first compound 1 µM) it was 0.485; in assay [2] (first compound 0.01 µM), 0.0994. For the same cell line, the relative viability in assay [2] (first compound 0.03162 µM) was determined as 0.0943; in assay [2] (first compound 0.1 µM), 0.0905; in assay [2] (first compound 0.3162 µM) it was 0.0859; in assay [2] (first compound 1 µM) it was 0.0908.
